Reference: patent EP0429372A1, “2-Azolyl nicotinate derivatives as herbicides” (RHONE-POULENC AGROCHIMIE, priority 1989, dated 1991)
Like-named read-outs stand apart in the source and are kept apart here.

Columns and labels:
Format in all cases: in vivo
Ipomea purpurea = experiment: Example B: post-emergence herbicidal application, pot test
From the text: (§1) Dans des pots de 7 x 7 x 8 cm remplis de terre agricole légère, on sème un nombre de graines déterminé en fonction de l'espèce végétale et de la grosseur de la graine.
(§2) On recouvre ensuite les graines d'une couche de terre d'environ 3 mm d'épaisseur et on laisse germer la graine jusqu'à ce qu'elle donne naissance à une plantule au stade convenable. Le stade de traitement pour les graminées est le stade "deuxième feuille en formation ". Le stade de traitement pour les dicotylédones, est le stade "cotylédons étalés, première feuille vraie en développement".
(§3) Les pots sont alors traités par pulvérisation de bouillie en quantité correspondant à une dose volumique d'application de 500 l/ha et contenant la matière active à la concentration désirée.
(§4) La bouille a été préparée de la même manière qu'à l'exemple A.
(§5) Les pots traités sont ensuite placés dans des bacs destinés à recevoir l'eau d'arrosage, en subirrigation, et maintenus pendant 24 jours à température ambiante sous 70 % d'humidité relative.
(§6) Au bout de 24 jours, on mesure un pourcentage (D) de destruction du nombre de pieds dans le pot traité par rapport au nombre de plantes dans les pots non traités (témoin). On mesure, sur les plantes traitées restantes, le pourcentage de réduction de taille (RT) par rapport aux plantes témoin.
(§7) Le pourcentage du volume foliaire non détruit par le produit est donc donné par la formule : [formula]
(§8) Cette valeur A est transformée en notation de 0 à 5 selon l'échelle suivante :
(§9) Les résultats obtenus sont présentés après le tableau A pour des doses d'application de 4000 g/ha.

Solanum nigrum [1] = experiment: as above
From the text: as §1, §2, §3, §4, §5, §6, §7, §8, §9

Echinochloa crusgalli = experiment: as above
From the text: as §1, §2, §3, §4, §5, §6, §7, §8, §9

Digitaria sanguinalis = experiment: as above
From the text: as §1, §2, §3, §4, §5, §6, §7, §8, §9

Sinapis alba = experiment: as above
From the text: as §1, §2, §3, §4, §5, §6, §7, §8, §9

Sesbania exaltata = experiment: Example C: selectivity test in major crops, post-emergence application
From the text: as §1
(§10) On recouvre ensuite les graines d'une couche de terre d'environ 3 mm d'épaisseur et on laisse germer la graine jusqu'à ce qu'elle donne naissance à une plantule au stade convenable. Le stade de traitement pour les graminées est le stade "deuxième feuille en formation". Le stade de traitement pour les dicotylédones, est le stade "cotylédons étalés, première feuille vraie en développement".
as §3
(§11) La bouillie a été préparée de la même manière qu'à l'exemple A.
as §5, §6
(§12) Le pourcentage de volume foliaire non détruit par le produit est donc donné par la formule : [formula]
as §8
(§13) Ainsi, un produit est jugé comme sélectif vis à vis de la culture lorsque la valeur A notée est de 0 ou 1.
(§14) Les résultats obtenus sont présentés dans l'exemple C pour des doses d'application comprises entre 0,5 et 4 kg de matière active par hectare selon les produits.

Oryza sativa = experiment: as above; details: crop (Riz), 24 days, score 0-5, 0 or 1 = selective; note: ranges in brackets are in %
From the text: as §1, §10, §3, §11, §5, §6, §12, §8, §13, §14

Viola tricolor = experiment: as above
From the text: as §1, §10, §3, §11, §5, §6, §12, §8, §13, §14

Xanthium pennsylvanicum = experiment: as above
From the text: as §1, §10, §3, §11, §5, §6, §12, §8, §13, §14

Solanum nigrum [2] = experiment: as above
From the text: as §1, §10, §3, §11, §5, §6, §12, §8, §13, §14

Triticum aestivum = experiment: as above; details: crop (Blé), 24 days, score 0-5, 0 or 1 = selective; note: ranges in brackets are in %
From the text: as §1, §10, §3, §11, §5, §6, §12, §8, §13, §14

Zea mays = experiment: as above; details: crop (Maïs), 24 days, score 0-5, 0 or 1 = selective; note: ranges in brackets are in %
From the text: as §1, §10, §3, §11, §5, §6, §12, §8, §13, §14

Ipomea pupurea = experiment: as above
From the text: as §1, §10, §3, §11, §5, §6, §12, §8, §13, §14

Polygonum convolvulus = details: 576 h
From the text: as §1, §10, §3, §11, §5, §6, §12, §8, §13, §14

Chrysanthemum segetum = details: post-emergence, 576 h
From the text: as §1, §10, §3, §11, §5, §6, §12, §8, §13, §14

Convolvulus arvensis = details: post-emergence, 576 h
From the text: as §1, §10, §3, §11, §5, §6, §12, §8, §13, §14

[3] = 4 kg/ha, rated after 24 days, score 0-5 from % leaf volume not destroyed
[4] = weed, dose 1 kg/ha, 24 days, score 0-5

SMILES | ACTIVITE DE POST-LEVEE IPO (Ipomea purpurea; 4000 g/ha, 576 h) | ACTIVITE DE POST-LEVEE SOL (Solanum nigrum [1]; 4000 g/ha, 576 h) | ACTIVITE DE POST-LEVEE ECH (Echinochloa crusgalli; 4000 g/ha, 576 h) | ACTIVITE DE POST-LEVEE DIG (Digitaria sanguinalis; 4000 g/ha, 576 h) | ACTIVITE DE POST-LEVEE SIN (Sinapis alba; 4000 g/ha, 576 h) | ACTIVITE HERBICIDE DE POST LEVEE S E S (Sesbania exaltata; 2000 g/ha, 576 h) | ACTIVITE HERBICIDE DE POST LEVEE O R Y (Oryza sativa; dose 2 kg/ha) | ACTIVITE HERBICIDE DE POST LEVEE V I O (Viola tricolor; 2000 g/ha, 576 h) | ACTIVITE HERBICIDE DE POST LEVEE X A N (Xanthium pennsylvanicum; 2000 g/ha, 576 h) | ACTIVITE HERBICIDE DE POST LEVEE S O L (Solanum nigrum [2]; 2000 g/ha, 576 h) | ACTIVITE HERBICIDE DE POST LEVEE T R Z (Triticum aestivum; dose 2 kg/ha) | ACTIVITE HERBICIDE DE POST LEVEE Z E A (Zea mays; dose 2 kg/ha) | ACTIVITE HERBICIDE DE POST LEVEE I P O (Ipomea pupurea; 2000 g/ha, 576 h) | other results
CN(C)S(=O)(=O)n1nc(-c2ccccc2)nc1-c1ncccc1C(=O)O [compound 6] | 4 (10 à 30) | 5 (O à 10) | 0 (90 à 100) | 0 (90 à 100) | 5 (O à 10) | 5 (O à 10) | 0 (90 à 100) | 4 (10 à 30) | 4 (10 à 30) | 5 (O à 10) | 0 (90 à 100) | 0 (90 à 100) | 5 (O à 10) | 
CN(C)S(=O)(=O)n1c(-c2ncccc2C(=O)O)nc2ccccc21 [compound 75, 2-(1-N,N diméthylsulfamoyl 2-benzimidazolyl) 3-carboxy pyridine] |  |  |  |  |  |  |  |  |  |  |  |  |  | ACTIVITE DE POST-LEVEE IPO (Ipomea purpurea; [3]): 4 (10 à 30); ACTIVITE DE POST-LEVEE SOL (Solanum nigrum [1]; [3]): 5 (O à 10); ACTIVITE DE POST-LEVEE ECH (Echinochloa crusgalli; [3]): 0 (90 à 100); ACTIVITE DE POST-LEVEE DIG (Digitaria sanguinalis; [3]): 0 (90 à 100); ACTIVITE DE POST-LEVEE SIN (Sinapis alba; [3]): 5 (O à 10); ACTIVITE HERBICIDE DE POST LEVEE S E S (Sesbania exaltata; [4]): 5 (O à 10); ACTIVITE HERBICIDE DE POST LEVEE V I O (Viola tricolor; [4]): 4 (10 à 30); ACTIVITE HERBICIDE DE POST LEVEE X A N (Xanthium pennsylvanicum; [4]): 5 (O à 10); ACTIVITE HERBICIDE DE POST LEVEE S O L (Solanum nigrum [2]; [4]): 5 (O à 10); ACTIVITE HERBICIDE DE POST LEVEE I P O (Ipomea pupurea; weed, post-emergence, dose 1 kg/ha, 24 days, score 0-5): 5 (O à 10)
CN(C)S(=O)(=O)n1c(-c2ncccc2C(=O)O)nc2c(Cl)cccc21 [compound 79] |  |  |  |  |  | 2 (50 à 70) | 0 (90 à 100) | 1 (70 à 90) | 1 (70 à 90) | 3 (30 à 50) | 0 (90 à 100) | 0 (90 à 100) | 4 (10 à 30) | ACTIVITE HERBICIDE DE POST LEVEE P O L (Polygonum convolvulus; 2000 g/ha): 3 (30 à 50); ACTIVITE HERBICIDE DE POST LEVEE C H Y (Chrysanthemum segetum; 2000 g/ha): 4 (10 à 30); ACTIVITE HERBICIDE DE POST LEVEE C O N (Convolvulus arvensis; 2000 g/ha): 4 (10 à 30)
CN(C)S(=O)(=O)n1c(-c2ncccc2C(=O)O)nc2cc(Cl)ccc21 [compound 84] | 3 (30 à 50) | 5 (O à 10) | 0 (90 à 100) | 0 (90 à 100) | 5 (O à 10) |  |  |  |  |  |  |  |  | ACTIVITE HERBICIDE DE POST LEVEE P O L (Polygonum convolvulus; 1000 g/ha): 4 (10 à 30); ACTIVITE HERBICIDE DE POST LEVEE C H Y (Chrysanthemum segetum; 1000 g/ha): 5 (O à 10); ACTIVITE HERBICIDE DE POST LEVEE C O N (Convolvulus arvensis; 1000 g/ha): 5 (O à 10); ACTIVITE HERBICIDE DE POST LEVEE S E S (Sesbania exaltata; 1000 g/ha, 576 h): 5 (O à 10); ACTIVITE HERBICIDE DE POST LEVEE O R Y (Oryza sativa; dose 1 kg/ha): 1 (70 à 90); ACTIVITE HERBICIDE DE POST LEVEE V I O (Viola tricolor; 1000 g/ha, 576 h): 2 (50 à 70); ACTIVITE HERBICIDE DE POST LEVEE X A N (Xanthium pennsylvanicum; 1000 g/ha, 576 h): 3 (30 à 50); ACTIVITE HERBICIDE DE POST LEVEE S O L (Solanum nigrum [2]; 1000 g/ha, 576 h): 5 (O à 10); ACTIVITE HERBICIDE DE POST LEVEE T R Z (Triticum aestivum; dose 1 kg/ha): 1 (70 à 90); ACTIVITE HERBICIDE DE POST LEVEE Z E A (Zea mays; dose 1 kg/ha): 1 (70 à 90); ACTIVITE HERBICIDE DE POST LEVEE I P O (Ipomea pupurea; 1000 g/ha, 576 h): 4 (10 à 30)
